Source: patent US20160074297A1, “COMBINATION OF PETROSELINIC ACID AND TAURINE FOR ORAL ADMINISTRATION FOR HAIR AGING CONTROL” (NUTRICOS TECHNOLOGIES, priority 2013, published 2016)

Test system: human mononuclear cells
Experiment: Production of lipoxin A4 in human mononuclear cells in vitro stimulated with PMA/A23187 plus DHA/EPA, quantified by LC-MS
Format: cell-based
Conditions: coriander oil 0.25 mg/ml, taurine 3.1 mg/ml; 30 minutes pre-incubation, then 2 hours of stimulation with phorbol myristate 0.05 μM, calcium ionophore 1 μM, DHA and EPA 1 μg/mL; cell supernatant
Experimental: Mononuclear blood cells are cultured under 5% CO2 and at 37° C. in a serum-free medium for macrophages (SFM Macrophage; Invitrogen 12065074) for 24 hours. […] The inflammatory response was then triggered in the presence of phorbol myristate (0.05 μM) and calcium ionophore (1μM) and a lipid substrate mixture composed of docosahexaenoic acid (DHA−1 μg/mL) and eicosapentaenoic acid (EPA-1μg/mL). The supernatants were then collected after 2 hours of stimulation and frozen at −80° C. before preparation for analysis by mass spectrometry. Experimental triplicates (three wells) were prepared per experimental condition. Into each culture plate was placed a control corresponding to cells stimulated with the PMA/A23187 mixture and/or with addition of the equimolar mixture of fatty acids. The frozen supernatants were concentrated by solid-phase extraction (SPE) and taken up in methanol before spectrometric analysis. The analytical method used consists in separating the various analytes by high-pressure liquid chromatography as a function of their retention time and in quantifying them by mass spectrometry. The analyses were performed using an LC 1290 Infinity chain (Agilent Technologies) coupled to a 6460 Triple Quad LC/MS mass spectrometer (Agilent Technologies) equipped with an electrospray ionization source (Jet stream technology) operating in negative mode. […]

## NCCS(=O)(=O)O [Taurine]
  Level of lipoxin A4 production (% modulation relative to the control): +38%
